target: T1, FAK enzyme (6 His tagged kinase domain, GenBank NP—722560) (Homo sapiens, UniProt Q05397); assay: In vitro enzyme assay (a): sandwich ELISA of FAK tyrosine kinase activity on polyGAT peptide, TMB colorimetric endpoint; assay type: biochemical; conditions: in vitro Enzyme Assay test (a); ATP at Km; geometric mean of n > 1 measurements, values marked * tested once
T1 construct: 6 His; made in house; host or cells: insect cell culture infected with baculovirus
Method: (a) In Vitro Enzyme Assay
A sandwich ELISA assay with a 3,3′,5,5′-tetramethyl benzidine (TMB) colorimetric endpoint was used in order to determine the level of effect of selected compounds on inhibition of FAK protein tyrosine kinase enzyme activity. A synthetic tyrosine containing peptide is coated onto a plastic surface, the level of phosphorylation of these tyrosine residues by the kinase enzyme in the presence of inhibitors is measured using an antibody that binds specifically to phosphorylated tyrosine residues. The amount of antibody bound to substrate is proportional to the level of enzyme catalysis.
Assay Protocol to Identify Inhibitors of Focal Adhesion Kinase (FAK).
A PlateMate Plus™ 384 automated liquid handling unit with a 100 μl disposable tip head was used to make all the non compound reagent additions and a Tecan 384PW plate washer with 384 head was used for all wash steps. Initially Matrix 384 well polystyrene plates (Cat #:4311) were coated with 40 μl/well of a 0.0375 mg/ml solution of synthetic poly peptide (polyGAT, Sigma Cat #:P3899) dissolved in phosphate buffered saline (PBS). Plates were stored overnight at 4° C. Immediately before use the coating solution was aspirated out and each well washed with 2×100 μl of PBS+0.05% Tween 20. To remove surplus phosphate, the wells were then washed with 2×100 μl 50 mM HEPES buffer pH 7.4. Plates were blotted dry before the addition of compounds. Compounds were tested over a 12 point dose range, a Labcyte Echo 550 was used to dispense compounds in nl volumes and back fill with DMSO. The final concentration of compound in the assay was dependent on the starting concentration of compound. For a 10 mM stock compound the final assay dose ranged from 100 μM down to […]. Control wells containing 120 nl DMSO (Max) or 120 nl of 10 mM staurosporine (LC Laboratories, Boston, USA Cat #: S-9300) (Min) were included in each plate. 10 ul of 5% dimethyl sulfoxide v/v (DMSO, Fisher Scientific) was added to each well immediately prior to addition of 10 μl of a co-factor solution containing 80 mM MgCl2 (Sigma Cat #: M1028); 80 mM MnCl2 (Sigma Cat #: M1787); ATP at a concentration calculated to enable the initial reaction velocity to progress at half the maximum velocity (Km for ATP) (Sigma Cat #:A7699). A final addition of 20 μl of enzyme solution containing 100 mM HEPES pH7.4; 0.2 mM sodium vanadate (Sigma Cat #:S6508); 0.2 g/l bovine serum albumin (BSA, Sigma Cat #: A7888); 0.2 mM dithioreitol (Sigma Cat #: 5545); 0.1% Triton X100 (Sigma Cat #:X100); FAK enzyme (20 μl/ml) was made to each well to start the assay running FAK enzyme was generated from an insect culture infected with baculo virus containing the DNA sequence encoding the 6 His tagged kinase domain (GenBank NP_722560).
Plates were left at room temperature for 25 minutes before 10 μl of 500 mM ethylenediaminetetraacetic acid (EDTA) was added to stop the assay and the wells were immediately washed 3×100 μl with PBS+0.05% Tween 20. A 4G10 antibody (Millipore Cat #: 16-105; 16-184) with a directly conjugated horse radish peroxidase (HRP) was used to detect the phosphorylation of the substrate by the FAK. 40 μl of PBS+0.05% Tween 20 containing 0.5% BSA and 0.1 μl/ml antibody was added to each well and left for 1 hour at room temperature to allow the antibody to bind. After this period the wells were again washed with 3×100 μl of PBS+0.05% Tween 20. TMB (Sigma Cat #: T2885) was used as a substrate for the HRP. Phosphate-citrate buffer was made up using capsules provided by Sigma (Cat #: P4922) following the manufacturers guidelines. TMB was dissolved at a concentration of 1 mg/ml in DMSO and let down to a final concentration of 0.05 mg/ml with the phosphor-citrate buffer. 40 μl of the TMB solution was added to each assay well and left for 30 minutes for the blue colour to develop. […]

T1 sequence (Q05397 422-680 limits assumed): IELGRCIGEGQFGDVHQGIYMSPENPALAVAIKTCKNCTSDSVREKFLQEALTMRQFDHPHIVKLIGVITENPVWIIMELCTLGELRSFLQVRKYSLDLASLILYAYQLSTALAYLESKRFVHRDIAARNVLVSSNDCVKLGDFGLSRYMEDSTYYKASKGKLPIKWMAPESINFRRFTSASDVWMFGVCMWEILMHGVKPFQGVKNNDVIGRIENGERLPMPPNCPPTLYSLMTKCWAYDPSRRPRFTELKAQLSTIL

Structure (SMILES)	IC50
CNC(=O)c1ccccc1Nc1cc(Nc2cn(C)nc2C)ncc1C#N [Example 1.01, 2-[[5-Cyano-2-[(1,3-dimethylpyrazol-4-yl)amino]-4-pyridyl]amino]-N-methyl-benzamide]	65 nM
CNC(=O)c1ccccc1Nc1cc(Nc2cc(OC)nn2C)ncc1C#N [Example 1.02, 2-[[5-cyano-2-[(5-methoxy-2-methylpyrazol-3-yl)amino]pyridin-4-yl]amino]-N-methylbenzamide]	102 nM
CON(C)C(=O)c1ccccc1Nc1cc(Nc2cn(C)nc2C)ncc1C#N [Example 1.03, 2-[[5-Cyano-2-[(1,3-dimethylpyrazol-4-yl)amino]-4-pyridyl]amino]-N-methoxy-N-methyl-benzamide]	554 nM
CN1CCc2cccc(Nc3cc(Nc4cnn(C)c4)ncc3C#N)c2C1=O [Example 1.04, 4-[(2-Methyl-1-oxo-3,4-dihydroisoquinolin-8-yl)amino]-6-[(1-methylpyrazol-4-yl)amino]pyridine-3-carbonitrile]	14 nM
Cc1cc(Nc2cc(Nc3cccc4c3C(=O)N(C)CC4)c(C#N)cn2)nn1C [Example 1.05, 6-[(1,5-dimethylpyrazol-3-yl)amino]-4-[(2-methyl-1-oxo-3,4-dihydroisoquinolin-8-yl)amino]pyridinc-3-carbonitrile]	4 nM
COc1cc(Nc2cc(Nc3cccc4c3C(=O)N(C)CC4)c(C#N)cn2)n(C)n1 [Example 1.06, 6-[(5-methoxy-2-methylpyrazol-3-yl)amino]-4-[(2-methyl-1-oxo-3,4-dihydroisoquinolin-8-yl)amino]pyridine-3-carbonitrile]	20 nM
CN1CCC(n2cc(Nc3cc(Nc4cccc5c4C(=O)N(C)CC5)c(C#N)cn3)cn2)CC1 [Example 1.07, 4-[(2-methyl-1-oxo-3,4-dihydroisoquinolin-8-yl)amino]-6-[[1-(1-methyl-4-piperidyl)pyrazol-4-yl]amino]pyridine-3-carbonitrile]	128 nM
Cc1nn(C)cc1Nc1cc(Nc2cccc3c2C(=O)N(C)CC3)c(C#N)cn1 [Example 1.08, 6-[(1,3-dimethylpyrazol-4-yl)amino]-4-[(2-methyl-1-oxo-3,4-dihydroisoquinolin-8-yl)amino]pyridine-3-carbonitrile]	6 nM
Cc1nn(C)cc1Nc1cc(Nc2ccc(N3CCN(C(C)C)CC3)c3c2C(=O)N(C)C3)c(C#N)cn1 [Example 1.09, 6-[(1,3-Dimethylpyrazol-4-yl)amino]-4-[[7-(4-isopropylpiperazin-1-yl)-2-methyl-3-oxo-isoindolin-4-yl]amino]pyridine-3-carbonitrile]	19 nM
CNC(=O)c1ccccc1Nc1cc(Nc2cc(C)n(C)n2)ncc1C(F)(F)F [Example 2.01, 2-[[2-[(1,5-Dimethylpyrazol-3-yl)amino]-5-(trifluoromethyl)-4-pyridyl]amino]-N-methyl-benzamide]	19 nM
CNC(=O)c1ccccc1Nc1cc(Nc2cn(C)nc2C)ncc1C(F)(F)F [Example 2.02, 2-[[2-[(1,3-dimethylpyrazol-4-yl)amino]-5-(trifluoromethyl)-4-pyridyl]amino]-N-methyl-benzamide]	8 nM
CONC(=O)c1ccccc1Nc1cc(Nc2cn(C)nc2C)ncc1Cl [Example 3.01, 2-[[5-Chloro-2-[(1,3-dimethylpyrazol-4-yl)amino]-4-pyridyl]amino]-N-methoxy-benzamide]	44 nM
CONC(=O)c1ccccc1Nc1cc(Nc2cc(C)n(C)n2)ncc1Cl [Example 3.02, 2-[[5-chloro-2-[(1,5-dimethylpyrazol-3-yl)amino]-4-pyridyl]amino]-N-methoxy-benzamide]	41 nM
CNC(=O)c1ccccc1Nc1cc(Nc2cnn(CC(=O)N3CCCC3)c2)ncc1Cl [Example 3.03, 2-[[5-Chloro-2-[[1-(2-oxo-2-pyrrolidin-1-yl-ethyl)pyrazol-4-yl]amino]-4-pyridyl]amino]-N-methyl-benzamide]	80 nM
